The values below come from patent US20100063160A1, “POLYMORPHS OF O-DESMETHYL VENLAFAXINE SUCCINATE” (priority 2006, published 2010).

Series [1] in a line: relative stability of ODV succinate polymorphic forms. The format is physicochemical. Particulars: compared with the other forms of ODV succinate.
The conditions of series [2]: cited from earlier work.
The conditions of series [3]: in vivo, po; cited from earlier work.
For series [4] the following is noted: in vivo; cited from earlier work.
The conditions of series [5]: cited from earlier work. The source holds these as a separate data set.
Series [6] concerns norepinephrine uptake. Conditions: cited from earlier work.
The test system of series [7] is serotonin uptake. Conditions: cited from earlier work.

For `CN(C)CC(c1ccc(O)cc1)C1(O)CCCCC1.O=C(O)CCC(=O)O` (centres unmarked) [Form II of ODV succinate, O-desmethyl venlafaxine (ODV) succinate monohydrate], the “stability of polymorphic form” value in series [1] is “most stable form”.
As to `CN(C)CC(c1ccc(O)cc1)C1(O)CCCCC1.O=C(O)CCC(=O)O` (centres unmarked) [ODV succinate, O-desmethyl venlafaxine (ODV) succinate], the permeability result in series [2] is on record as “high”. Moreover, in series [3], the “incidence of nausea, vomiting, diarrhea, abdominal pain, headache, vasovagal malaise and/or trismus” value is given as “lower incidence”. Also, in series [4], the “absorption in the gastrointestinal tract” value is “well absorbed” and the bioavailability entry is listed as “high”. For the same molecule, the solubility entry in series [5] is listed as “high”.
In the case of `CN(C)CC(c1ccc(O)cc1)C1(O)CCCCC1` (centres unmarked) [ODV, 1-[2-(dimethylamino)-1-(4-hydroxyphenyl)ethyl]cyclohexanol], in series [6], the norepinephrine uptake inhibition result is given as “inhibit”. Besides, the serotonin uptake inhibition entry in series [7] is “inhibit”.
